Legend:
hiPSC-CMs = assay: Spontaneous action potential recording in hiPSC-CMs (whole-cell current clamp); format: cell-based, human
Description: The hiPSC-CMs from human fibroblast cell lines (iCell Cardiomyocytes; Cellular Dynamics International, Madison, WI, USA) were purchased and cultured for single-cell electrophysiological recordings. Frozen vials of hiPSC-CMs were thawed in a water bath maintained at 37°C and mixed with ice-cold plating medium (iCell Cardiomyocyte Plating Medium, glucose-free). The cells were transferred to four-well culture plates containing 0.1% gelatin-coated glass coverslips and then maintained in a culture incubator at 37°C in an atmosphere of 93% air and 7% CO2. After 2 days of culture, the plating medium was replaced with culture medium (iCell Cardiomyocyte Maintenance Medium, glucose-free), which was then changed every 2 days. The hiPSC-CMs were cultured for 4 weeks and used at 7 to 28 days post-thaw for electrophysiological analysis. At this time, the amplitudes and intervals of the spontaneous APs are stabilized, and electrically connected syncytial layers are formed. […] The internal solution contained (in mM) 120 K-Asp, 20 KCl, 5 NaCl, 2 CaCl2, 10 HEPES, 5 EGTA, and 5 Mg-ATP (pH 7.25). We recorded typical APs in hiPSC-CMs in the current-clamp mode. The spontaneous beating activity or paced firing of single hiPSC-CMs were recorded, and only hiPSC-CMs that could beat stably were included in the analysis. Following stabilization of the AP waveforms, the average of six recorded APs for each test concentration was analyzed.
Using the patch-clamp technique, we measured the APs in spontaneously contracting cells isolated from hiPSC-CMs. […] Ventricular-type APs were distinguished based on the relatively more negative maximal diastolic potential (MDP) and rapid AP upstroke with long plateau phase.

WT hERG = WT hERG (Homo sapiens, UniProt Q12809); assay: Alanine scanning: wild-type hERG current in HEK-293 cells
Chain of WT hERG (Q12809 whole entry): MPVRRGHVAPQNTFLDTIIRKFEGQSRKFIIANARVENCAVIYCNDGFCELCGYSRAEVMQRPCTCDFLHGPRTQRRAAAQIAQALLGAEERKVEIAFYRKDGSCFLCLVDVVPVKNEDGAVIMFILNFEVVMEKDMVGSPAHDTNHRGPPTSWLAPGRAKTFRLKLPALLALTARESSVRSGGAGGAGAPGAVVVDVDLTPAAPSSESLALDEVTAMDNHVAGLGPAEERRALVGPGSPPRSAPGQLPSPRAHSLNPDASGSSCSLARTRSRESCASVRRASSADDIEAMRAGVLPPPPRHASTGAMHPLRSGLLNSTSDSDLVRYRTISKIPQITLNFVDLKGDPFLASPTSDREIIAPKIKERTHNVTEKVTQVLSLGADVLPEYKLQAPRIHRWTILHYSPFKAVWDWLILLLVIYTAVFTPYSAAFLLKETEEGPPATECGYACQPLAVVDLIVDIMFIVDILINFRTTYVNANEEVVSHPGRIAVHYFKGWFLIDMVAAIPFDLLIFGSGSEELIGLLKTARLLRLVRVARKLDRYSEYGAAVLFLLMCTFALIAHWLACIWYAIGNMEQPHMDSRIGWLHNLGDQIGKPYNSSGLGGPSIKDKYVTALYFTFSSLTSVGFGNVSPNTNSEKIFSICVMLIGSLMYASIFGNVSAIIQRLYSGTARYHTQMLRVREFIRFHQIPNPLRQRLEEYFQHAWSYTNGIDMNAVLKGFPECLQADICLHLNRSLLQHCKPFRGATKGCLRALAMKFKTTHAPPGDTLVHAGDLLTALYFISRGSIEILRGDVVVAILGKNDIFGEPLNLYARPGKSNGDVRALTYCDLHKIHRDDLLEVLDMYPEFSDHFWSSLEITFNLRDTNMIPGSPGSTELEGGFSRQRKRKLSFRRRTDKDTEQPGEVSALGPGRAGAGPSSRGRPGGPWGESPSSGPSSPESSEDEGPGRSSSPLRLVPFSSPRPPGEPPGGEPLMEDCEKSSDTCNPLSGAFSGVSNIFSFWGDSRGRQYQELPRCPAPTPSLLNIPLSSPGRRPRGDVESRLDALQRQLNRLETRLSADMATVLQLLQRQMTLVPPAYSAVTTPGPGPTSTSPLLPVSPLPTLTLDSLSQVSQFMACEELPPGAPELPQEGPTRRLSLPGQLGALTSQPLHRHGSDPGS
Excerpt: The hERG mutations were constructed by site-directed mutagenesis of WT hERG cDNA in pcDNA3.1 vector using the QuickChange Site-Directed Mutagenesis Kit (Stratagene), and the integrity of the construct was verified by DNA sequencing. The WT hERG (generously donated by Professor Ho, Seoul National University, Korea) and mutant channels were transiently expressed in an HEK-293 cell line using Lipofectamine 2000 (Gibco), according to the manufacturer’s recommendations.

Molecule `COc1cc2c(Nc3ccc(Br)cc3F)ncnc2cc1OCC1CCN(C)CC1` [Vandetanib] has an APA (hiPSC-CMs; 0.3 μM) of 104.2 ± 3.0 mV, an APD50 (hiPSC-CMs; 0.3 μM) of 349.3 ± 50.9 ms and an APD90 (hiPSC-CMs; 0.3 μM) of 481.0 ± 53.9 ms. It also gave an MDP (hiPSC-CMs; 0.3 μM) of -66.9 ± 2.3 mV, a Vmax (hiPSC-CMs; 0.3 μM) of 40.3 ± 13.9 V/s and an APA (hiPSC-CMs; 1 μM) of 105.5 ± 3.6 mV. The APD50 (hiPSC-CMs; 1 μM) was 596.4 ± 158.8 ms, the APD90 (hiPSC-CMs; 1 μM) was 880.9 ± 192.6 ms and the MDP (hiPSC-CMs; 1 μM) was -64.5 ± 2.4 mV. It also gave a Vmax (hiPSC-CMs; 1 μM) of 36.0 ± 13.0 V/s, an APA (hiPSC-CMs; 3 μM) of 100.7 ± 2.2 mV and an APD50 (hiPSC-CMs; 3 μM) of 1243.0 ± 386.1 ms. For the same molecule, the APD90 (hiPSC-CMs; 3 μM) was 2047.9 ± 597.1 ms, the “Decrease of APA compared to vehicle control” value (hiPSC-CMs; 3 μM) was 4.2% and the “Decrease of MDP compared to vehicle control” value (hiPSC-CMs; 3 μM) was 9%. The MDP (hiPSC-CMs; 3 μM) was -61.0 ± 1.5 mV, the Vmax (hiPSC-CMs; 3 μM) was 19.5 ± 6.5 V/s and the “Early after depolarization (EAD)” value (hiPSC-CMs; 3 μM, n = 6 cells) was “induced at 3 μM of vandetanib in all cells tested”. The “Concentration from which prolongation of APD50 and APD90 was observed” value (hiPSC-CMs; tested 0.3, 1, 3 μM) was ≥ 1 µM, the “WT hERG current” value (WT hERG; 3 μM) was 208.9 ± 21.6 and the inhibition at 3 μM (WT hERG; human, HEK-293 cells transiently expressing wild-type hERG) was ~86.4%.

Reference: publication PMC5891061, “Electrophysiological mechanisms of vandetanib-induced cardiotoxicity: Comparison of action potentials in rabbit Purkinje fibers and pluripotent stem cell-derived cardiomyocytes” (PLoS ONE, 2018)
